In patent publication US7704985B2, “Treatment of irritable bowel syndrome and related bowel diseases” (The Board of Regents of the University of Texas System, priority 2002, dated 2010):

Tested on: acetic acid sensitized rats
Assay: Behavioral response to graded colorectal distention (CRD) in neonatally acetic acid sensitized rats
Format: in vivo, Sprague Dawley rat
Settings: oral, 1.5 mg/kg body weight in corn oil daily for two weeks; graded CRD 10 mm-80 mm Hg; behavioral response grading 0-3
Experimental: Neonatal sensitization with acetic acid: Description of the model. It was previously shown that transient noxious stimulation of the colon during postnatal development can cause long-lasting hyperalgesia, despite complete resolution of the initiating event. In a variation of this technique, 0.3% acetic acid was instilled into the rectum of rats at postnatal days 7-10. […] By contrast, when rats are treated with acetic acid as adults, and tested after a similar period of time, no sensitization is observed. Sprague Dawley rat pups were sensitized on neonatal day 10 with acetic acid. In brief, a thin polyethylene tubing (P-90 was introduced gently into the rectum 2 cm from the anus. 0.2 ml of 0.5% glacial acetic acid in normal saline was injected through the tube into the colo rectum. The pups were allowed to grow into adults. When the rats were approximately eight weeks old they were weighed and their behavioral responses to graded (10 mm-80 mm Hg) colo rectal distention (CRD) was determined. Under light brevital (1%) anesthesia a polyethelene tube connected to a balloon (made out of a glove finger) was guided into the colo-rectum ˜8 cms from the rectum and the tube was fastened to the tail. The open end was connected to the barostat device. The rat was put into a rat restrainer allowing limited movement. […]

`CCC(=O)OCC(=O)[C@@]1(OC(=O)CC)[C@@H](C)C[C@H]2[C@@H]3CCC4=CC(=O)C=C[C@]4(C)[C@@]3(Cl)[C@@H](O)C[C@@]21C` [beclamethasone dipropionate] was tested, and the “pain threshold to graded CRD compared to the vehicle treated group” value was “higher pain threshold”.
